In patent US11078220B2, “High-purity large-scale preparation of stannsoporfin” (Mallinckrodt Hospital Products IP Limited, priority 2006, dated 2021):

Key:
[1] = Long-term storage stability of high-purity stannsoporfin at 25° C. and 60% relative humidity; type: physicochemical; details: 25° C./60% RH
Method: (§1) The long-term stability of the compound was studied under two different storage conditions: 25° C. (+/−2° C.) and 60% relative humidity (+/−5%); and 40° C. (+/−2° C.) and 75% relative humidity (+/−5%). Primary packaging for the compound was a 4-mil polyethylene bag and secondary packaging for the compound was a 4 mil polyethylene bag, stored in an HDPE drum.
(§2) Table 5 and Table 6 show stability data for the batch described in Table 3, under the 25° C./60% RH and 40° C./75% RH conditions, respectively. Table 7 and Table 8 show stability data for the batch described in Table 4 under the 25° C./60% RH and 40° C./75% RH conditions, respectively. Data for the zero-month time point was taken from the batch release analysis (the zero time point represents the actual date when samples were placed in the stability test chambers). The samples were analyzed at approximately 3 months and approximately 6 months after the samples were placed under the storage conditions.

[2] = Long-term storage stability of high-purity stannsoporfin at 40° C. and 75% relative humidity; type: physicochemical; details: 40° C./75% RH
Method: as §1, §2

[3] = batch of Table 3 (0.840 kg), 0 months
[4] = batch of Table 3 (0.840 kg), 3 months
[5] = batch of Table 3 (0.840 kg), 6 months
[6] = batch of Table 4 (1.364 kg), 0 months
[7] = batch of Table 4 (1.364 kg), 3 months
[8] = batch of Table 4 (1.364 kg), 6 months

tin (IV) mesoporphyrin IX dichloride [stannsoporfin]
HPLC assay (w/w as is) [1, 3]: 100.4% | HPLC assay (w/w, solvent-free anhydrous basis) [1, 3]: 100.7% | HPLC purity (impurity peak at RRt retention time 0.72-0.73) [1, 3]: 0.06% | HPLC purity (total impurities) [1, 3]: 0.3 | Water content (Karl Fischer, coulometric) [1, 3]: Trace < 1% | HPLC assay (w/w as is) [1, 4]: 99.6% | HPLC assay (w/w, solvent-free anhydrous basis) [1, 4]: 99.8% | HPLC purity (impurity peak at RRt retention time 0.72-0.73) [1, 4]: <0.05% | HPLC purity (total impurities) [1, 4]: 0.22 | Water content (Karl Fischer, coulometric) [1, 4]: <1% (0.1%) | HPLC assay (w/w as is) [1, 5]: 98.2% | HPLC assay (w/w, solvent-free anhydrous basis) [1, 5]: 98.4% | HPLC purity (impurity peak at RRt retention time 0.72-0.73) [1, 5]: 0.07% | HPLC purity (total impurities) [1, 5]: 0.24 | Water content (Karl Fischer, coulometric) [1, 5]: <1% (0.1%) | HPLC assay (w/w as is) [1, 6]: 102.3% | HPLC assay (w/w, solvent-free anhydrous basis) [1, 6]: 102.3% | HPLC parity (total impurities) [1, 6]: 0.22 | HPLC purity (impurity peak at RRt retention time 0.72-0.73) [1, 6]: 0.06% | Water content (Karl Fischer, coulometric) [1, 6]: Trace < 1% | HPLC assay (w/w as is) [1, 7]: 102.0% | HPLC assay (w/w, solvent-free anhydrous basis) [1, 7]: 102.1% | HPLC parity (total impurities) [1, 7]: 0.29 | HPLC purity (impurity peak at RRt retention time 0.72-0.73) [1, 7]: 0.05% | Water content (Karl Fischer, coulometric) [1, 7]: <1% (0.1%) | HPLC assay (w/w as is) [1, 8]: 98.4% | HPLC assay (w/w, solvent-free anhydrous basis) [1, 8]: 98.5% | HPLC parity (total impurities) [1, 8]: 0.19 | HPLC purity (impurity peak at RRt retention time 0.72-0.73) [1, 8]: 0.05% | Water content (Karl Fischer, coulometric) [1, 8]: <1% (0.1%) | HPLC assay (w/w as is) [2, 3]: 100.4% | HPLC assay (w/w, solvent-free anhydrous basis) [2, 3]: 100.7% | HPLC purity (impurity peak at RRt retention time 0.72-0.73) [2, 3]: 0.06% | HPLC purity (total impurities) [2, 3]: 03 | Water content (Karl Fischer, coulometric) [2, 3]: Trace <1% | HPLC assay (w/w as is) [2, 4]: 100.9% | HPLC assay (w/w, solvent-free anhydrous basis) [2, 4]: 101.2% | HPLC purity (impurity peak at RRt retention time 0.72-0.73) [2, 4]: <0.05% | HPLC purity (total impurities) [2, 4]: 0.28 | Water content (Karl Fischer, coulometric) [2, 4]: <1% (0.2%) | HPLC assay (w/w as is) [2, 5]: 99.6% | HPLC assay (w/w, solvent-free anhydrous basis) [2, 5]: 99.8% | HPLC purity (impurity peak at RRt retention time 0.72-0.73) [2, 5]: 0.06% | HPLC purity (total impurities) [2, 5]: 0.26 | Water content (Karl Fischer, coulometric) [2, 5]: <1% (0.1%) | HPLC assay (w/w as is) [2, 6]: 102.3% | HPLC assay (w/w, solvent-free anhydrous basis) [2, 6]: 102.3% | HPLC purity (impurity peak at RRt retention time 0.72-0.73) [2, 6]: 0.06% | HPLC purity (total impurities) [2, 6]: 0.22 | Water content (Karl Fischer, coulometric) [2, 6]: Trace < 1% | HPLC assay (w/w as is) [2, 7]: 101.0% | HPLC assay (w/w, solvent-free anhydrous basis) [2, 7]: 101.1% | HPLC purity (impurity peak at RRt retention time 0.72-0.73) [2, 7]: <0.05% | HPLC purity (total impurities) [2, 7]: 0.29 | Water content (Karl Fischer, coulometric) [2, 7]: <1% (0.1%) | HPLC assay (w/w as is) [2, 8]: 97.7% | HPLC assay (w/w, solvent-free anhydrous basis) [2, 8]: 97.8% | HPLC purity (impurity peak at RRt retention time 0.72-0.73) [2, 8]: 0.06% | HPLC purity (total impurities) [2, 8]: 0.24 | Water content (Karl Fischer, coulometric) [2, 8]: <1% (0.1%)
